Values joined by “and” are separate entries in the source; they are usually repeats but may differ in a detail not shown here. Equal values may be shown once. Toxic doses and inconclusive results are not listed.
Tested on: CD2F1 mice, L1210 leukemia ip, survival T/C
Assay: NCI In Vivo Anticancer Drug Screen. Data for tumor model L1210 Leukemia (intraperitoneal) in CD2F1 (CDF1) mice
Conditions: higher = longer survival
Outline: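 Implant tumor; dose compound or vehicle; measure endpoint in both groups; report treated divided by control.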

[1] = endpoint: mean survival time, dose: 100.0 mg/kg/injection, schedule: Q01DX009 (ip), vehicle: saline with Tween-80
[2] = endpoint: mean survival time, dose: 100.0 mg/kg/injection, schedule: Q04DX003 (ip), vehicle: saline with Tween-80
[3] = endpoint: mean survival time, dose: 200.0 mg/kg/injection, schedule: Q01DX001 (ip), vehicle: saline with Tween-80
[4] = endpoint: mean survival time, dose: 200.0 mg/kg/injection, schedule: Q01DX009 (ip), vehicle: saline with Tween-80
[5] = endpoint: mean survival time, dose: 200.0 mg/kg/injection, schedule: Q04DX003 (ip), vehicle: saline with Tween-80
[6] = endpoint: mean survival time, dose: 400.0 mg/kg/injection, schedule: Q01DX001 (ip), vehicle: saline with Tween-80
[7] = endpoint: mean survival time, dose: 400.0 mg/kg/injection, schedule: Q04DX003 (ip), vehicle: saline with Tween-80

CCOC(=O)c1ccc(NC(=S)NC(=O)c2cccc(Br)c2)cc1
T/C (endpoint: mean survival time, dose: 100.0 mg/kg/injection, schedule: Q01DX001 (ip), vehicle: saline with Tween-80): 101 % of control and 112 % of control | T/C [1]: 92 % of control and 98 % of control | T/C (endpoint: mean survival time, dose: 100.0 mg/kg/injection, schedule: Q04DX002 (ip), vehicle: saline with Tween-80): 93 % of control | T/C [2]: 96 % of control | T/C [3]: 97 % of control and 101 % of control | T/C [4]: 94 % of control and 95 % of control | T/C (endpoint: mean survival time, dose: 200.0 mg/kg/injection, schedule: Q04DX002 (ip), vehicle: saline with Tween-80): 95 % of control | T/C [5]: 98 % of control | T/C [6]: 101 % of control | T/C (endpoint: mean survival time, dose: 400.0 mg/kg/injection, schedule: Q01DX009 (ip), vehicle: saline with Tween-80): 97 % of control and 106 % of control | T/C (endpoint: mean survival time, dose: 400.0 mg/kg/injection, schedule: Q04DX002 (ip), vehicle: saline with Tween-80): 96 % of control | T/C [7]: 93 % of control

O=S(=O)(NN=C(c1ccccc1)c1ccccc1)c1ccccc1
T/C (endpoint: mean survival time, dose: 12.5 mg/kg/injection, schedule: Q01DX009 (ip), vehicle: Klucel (hydroxypropylcellulose) (HPC)): 96 % of control | T/C (endpoint: mean survival time, dose: 25.0 mg/kg/injection, schedule: Q01DX009 (ip), vehicle: Klucel (hydroxypropylcellulose) (HPC)): 100 % of control | T/C (endpoint: mean survival time, dose: 50.0 mg/kg/injection, schedule: Q01DX009 (ip), vehicle: Klucel (hydroxypropylcellulose) (HPC)): 92 % of control | T/C (endpoint: mean survival time, dose: 100.0 mg/kg/injection, schedule: Q01DX009 (ip), vehicle: Klucel (hydroxypropylcellulose) (HPC)): 94 % of control | T/C (endpoint: mean survival time, dose: 200.0 mg/kg/injection, schedule: Q01DX009 (ip), vehicle: Klucel (hydroxypropylcellulose) (HPC)): 92 % of control | T/C (endpoint: mean survival time, dose: 400.0 mg/kg/injection, schedule: Q01DX009 (ip), vehicle: Klucel (hydroxypropylcellulose) (HPC)): 92 % of control

Nc1nc2c(c(=O)[nH]1)N=C(CCc1ccccc1)CO2
T/C (endpoint: mean survival time, dose: 25.0 mg/kg/injection, schedule: Q01DX009 (ip), vehicle: other): 91 % of control | T/C (endpoint: mean survival time, dose: 50.0 mg/kg/injection, schedule: Q01DX009 (ip), vehicle: other): 93 % of control | T/C (endpoint: mean survival time, dose: 100.0 mg/kg/injection, schedule: Q01DX009 (ip), vehicle: other): 87 % of control | T/C (endpoint: mean survival time, dose: 200.0 mg/kg/injection, schedule: Q01DX009 (ip), vehicle: other): 87 % of control

C=CCN(CC=C)/N=N/c1nc[nH]c1C(N)=O
T/C [2]: 98 % of control | T/C [5]: 105 % of control | T/C [7]: 100 % of control

CN(C)N=Nc1ccc([N+](=O)[O-])cc1C(N)=O
T/C (endpoint: mean survival time, dose: 18.8 mg/kg/injection, schedule: Q01DX009 (ip), vehicle: Klucel (hydroxypropylcellulose) (HPC)): 95 % of control and 101 % of control | T/C (endpoint: mean survival time, dose: 37.5 mg/kg/injection, schedule: Q01DX009 (ip), vehicle: Klucel (hydroxypropylcellulose) (HPC)): 96 % of control and 110 % of control | T/C (endpoint: mean survival time, dose: 75.0 mg/kg/injection, schedule: Q01DX009 (ip), vehicle: Klucel (hydroxypropylcellulose) (HPC)): 101 % of control and 110 % of control | T/C (endpoint: mean survival time, dose: 300.0 mg/kg/injection, schedule: Q01DX009 (ip), vehicle: Klucel (hydroxypropylcellulose) (HPC)): 89 % of control

COc1ccc(CCNC2C3CC4CC(C3)CC2C4)cc1OC (stereo not given)
T/C (endpoint: mean survival time, dose: 25.0 mg/kg/injection, schedule: Q04DX003 (ip), vehicle: saline with Tween-80): 112 % of control | T/C (endpoint: mean survival time, dose: 50.0 mg/kg/injection, schedule: Q04DX003 (ip), vehicle: saline with Tween-80): 101 % of control | T/C [2]: 101 % of control

CCCCS(=O)(=O)c1ccc(Cl)cc1
T/C [2]: 96 % of control | T/C [5]: 100 % of control | T/C [7]: 105 % of control

NC1CCCCC1N.O=C([O-])c1cc(S(=O)(=O)Nc2cc(S(=O)(=O)[O-])cc3cc(S(=O)(=O)[O-])cc(O)c23)ccc1[O-].[Pt+4]
T/C (endpoint: median survival time, dose: 0.39 mg/kg/injection, schedule: Q04DX003 (ip), vehicle: saline with Tween-80): 124 % of control | T/C (endpoint: median survival time, dose: 1.56 mg/kg/injection, schedule: Q04DX003 (ip), vehicle: saline with Tween-80): 181 % of control | T/C (endpoint: median survival time, dose: 3.12 mg/kg/injection, schedule: Q04DX003 (ip), vehicle: saline with Tween-80): 253 % of control and 264 % of control | T/C (endpoint: median survival time, dose: 6.25 mg/kg/injection, schedule: Q04DX003 (ip), vehicle: saline with Tween-80): 289 % of control and 103 % of control

CCCCCCCCCCCC(=O)OCCN(C=O)C[n+]1ccccc1
T/C (endpoint: mean survival time, dose: 100.0 mg/kg/injection, schedule: Q04DX002 (ip), vehicle: saline): 101 % of control

CCC(=O)NCCc1ccccc1
T/C [1]: 100 % of control | T/C [3]: 97 % of control | T/C [4]: 100 % of control | T/C [6]: 97 % of control

O=c1c2c([nH]c3ccccc13)CSC2
T/C [2]: 92 % of control | T/C [5]: 87 % of control | T/C [7]: 94 % of control

BrC1CCCCCCC1Br (stereo not given)
T/C (endpoint: mean survival time, dose: 25.0 mg/kg/injection, schedule: Q01DX009 (ip), vehicle: saline): 96 % of control | T/C (endpoint: mean survival time, dose: 50.0 mg/kg/injection, schedule: Q01DX009 (ip), vehicle: saline): 94 % of control | T/C (endpoint: mean survival time, dose: 100.0 mg/kg/injection, schedule: Q01DX009 (ip), vehicle: saline): 93 % of control
